How the values were obtained:
HO enzymatic activity = HO enzymatic activity (bilirubin generation in microsomes) of transplanted hearts; format: in vivo, mouse hearts transplanted into rats; settings: 2 days after transplantation
Method: HO enzymatic activity was measured by bilirubin generation in heart and liver microsomes. Animals were sacrificed, and the liver and hearts were flushed with ice-cold PBS and frozen at −70° C. until used. Organs were homogenized in four volumes of sucrose (250 mM) Tris-HCl (10 mM/L) buffer (pH 7.4) on ice and centrifuged (28,000 RPM 3×, 20 min, 4° C.). The supernatant was centrifuged (105,000 RPM 3×, 60 min, 4° C.), and the microsomal pellet was resuspended in MgCl2 (2 mM)-potassium phosphate (100 mM) buffer (pH 7.4) and sonicated on ice. The samples (1 mg of protein) were added to the reaction mixture (400 îl) containing rat liver cytosol (2 mg of protein), hemin (50 îM), glucose-6-phosphate (2 mM), glucose-6-phosphate dehydrogenase (0.25 U), and NADPH (0.8 mM) for 60 min at 37° C. in the dark. The formed bilirubin was extracted with chloroform and, OD was measured at 464–530 nm (extinction coefficient, 40 mM/cm for bilirubin). Enzyme activity is expressed as picomoles of bilirubin formed per milligram of protein per 60 min (pmol/mg/h). The protein concentration was determined by the bicinchoninic acid protein assay (Pierce, Georgetown). The background was ˜5 pmol/mg/h. […] Carboxyhemoglobin was measured 2 days after transplantation by using a Corning 865 blood gas analyzer (Clinical Chemistry, Massachusetts General Hospital, Boston, Mass.).

[1] = system: mouse hearts transplanted into rats; assay: Immunohistology of cardiac grafts (thrombosis, apoptosis); format: in vivo, BALB/c mouse hearts, Lewis rats; settings: for vascular thrombosis in graft: 3 days after transplantation
Method: Grafts were harvested 3 days after transplantation, snap-frozen in liquid nitrogen, and stored at −80° C. Cryostat sections were fixed and stained as described previously (Soares et al, Nature Med. 4:1073, 1998). Rat leukocyte populations were analyzed by using anti-rat leukocyte common Ag (LCA, CD45; OX-1), Éé TCR (TCRÉé-chains; R73), B cell (CD45RB; OX-33), NK cell (NKR-P1; 3.2.3), and MΦ (CD68; ED-1), mAbs (Serotec, Harlan Bioproducts for Science, Indianapolis, Ind.). Detection of fibrin/fibrinogen was conducted by using a rabbit anti-human fibrin/fibrinogen polyclonal Ab (Dako, Carpinteria, Calif.). Intragraft complement activation was detected by using an anti-rat Clq (The Binding Site, Birmigham, U. K.), C3 (ED11; Serotec), or C5b-9 mAb (Dako). Rat IgM was detected by using the mouse anti-rat IgM mAb MARM-4 (a kind gift of Dr. H. Bazin, University of Louvain, Brussels, Belgium). Isotype-matched mAbs or purified Ig, as well as a control for residual endogenous peroxidase activity, were included in each experiment. Detection of apoptosis was carried out by using ApopTagO in situ apoptosis detection kit (Oncor, Gaithersburg, Md.) according to the manufacturer's instructions.
Mouse hearts were transplanted into CVF plus CsA-treated rats. SnPPIX or FePPIX was administered and graft recipients were exposed to CO (250–400 ppm). Grafts were harvested 3 days after transplantation (n=3 per group) and stained for rat IgM, rat and mouse complement C1q, rat and mouse P-selectin, rat and mouse fibrin/fibrinogen, and rat CD45 expressing leukocytes. […] HO-2, HO-1, and ferritin were detected in graft endothelial and smooth muscle cells as well as in cardiac myocytes (data not shown). There was only minimal vascular thrombosis or infiltration by host leukocytes usually associated with focal areas of infarction (data not shown). There was low but detectable P-selectin expression on the vascular endothelium (data not shown). […] Thrombi were consistently observed in large coronary vessels at the base of the heart. There were no detectable P-selectin-expressing platelet aggregates in the microvasculature (data not shown). There was extensive graft infiltration by host neutrophils as well as by CD45^++ leukocytes expressing the monocyte/MΦ marker CD68/ED-1 and MHC class II Ags (data not shown). Infiltrating monocyte/MΦ were found near arterioles and scattered throughout the myocardium, associated with areas of infarction.

[2] = system: mouse 2F–2B endothelial cells; assay: Cellular ELISA for anti-graft Abs and rat C3 binding to mouse endothelial cells; format: in vivo; settings: rats with mouse cardiac graft under CVF plus CsA
Method: Serum levels of rat anti-mouse Abs were measured by cellular-based indirect ELISA. The mouse 2F–2B endothelial cell line (CRL-2168; American Type Culture Collection (ATCC), Manassas, Va.) was used as an antigenic target. Briefly, 2F–2B cells were cultured in DMEM (Life Technologies, Rockville, Md.), 10% FCS, 100 U/ml penicillin, and 100 îg/ml streptomycin (Life Technologies). Glutaraldehyde-fixed 2F–2B cells were incubated (1 h, 37° C.) in the presence of rat serum serially diluted in PBS 0.05% Tween 20 (Sigma) and rat anti-mouse Abs were detected by using mouse anti-rat IgM (MARM-4), IgG1 (MARG1-2), IgG2a (Marg2a-1), IgG2b (MARGb-8), or IgG2c (MARG2c-5) (kind gifts from Prof. H. Bazin, University of Louvain, Brussels, Belgium). Mouse anti-rat Abs were detected by using HRP-labeled goat anti-mouse Fab′ depleted of anti-rat Ig cross reactivity (0.1 îg/ml, 1 h, room temperature; Pierce, Rockford, Ill.). […] Absorbance was measured at Î=490 nm. The relative amount of circulating anti-graft Abs in the serum was expressed as OD (Î=490) taken from one serial dilution in the linear range of the assay (1:32–1:1024).
Binding of rat C3 to mouse endothelial cells was measured by a modified cellular ELISA with mouse 2F–2B endothelial cells as antigenic targets (Miyatake et al, J. Immunol. 160:4114, 1998). Briefly, nonfixed 2F–2B endothelial cells were incubated in the presence of rat serum serially diluted in GVB^++ buffer (1 h, 37° C.). Cells were fixed in PBS, 0.05% glutaraldehyde, and rat C3 deposition was detected by using a mouse anti-rat C3 mAb (Serotec).

[3] = rats treated with SnPPIX and exposed to CO
[4] = rats treated with SnPPIX or FePPIX

Row | SMILES | total HO enzymatic activity in transplanted mouse hearts (HO enzymatic activity; [3]) [pmol/mg/h] | vascular thrombosis in graft ([1]; SnPPIX-treated rats exposed to CO 250–400 ppm) | apoptosis in transplanted mouse hearts [1, 3] | apoptosis in transplanted mouse hearts [1, 4] | influence on C3 deposition on mouse endothelial cells [2] | influence on anti-mouse Ab (IgM) response [2] | total HO enzymatic activity in transplanted mouse hearts (HO enzymatic activity) [pmol/mg/h] | vascular thrombosis in graft ([1]; CVF plus CsA-treated rats, SnPPIX)
1 | [C-]#[O+] [CO, carbon monoxide] | 43.6 ± 7.57 | no signs of vascular thrombosis | Apoptosis did not occur |  |  |  |  | 
2 | C=CC1=C(C)c2cc3[n-]c(cc4[n-]c(cc5nc(cc1n2)C(C)=C5C=C)c(C)c4CCC(=O)O)c(CCC(=O)O)c3C.[Fe+2] [FePPIX, iron protoporphyrin] |  |  |  | Apoptosis did not occur | Neither SnPPIX or FePPIX treatment influenced C3 deposition | did not influence this Ab response |  | 
3 | C=Cc1c2[n-]c(c1C)/C=c1\[n-]/c(c(C)c1C=C)=C\c1[n-]c(c(CCC(=O)O)c1C)C=c1[n-]/c(c(C)c1CCC(=O)O)=C\2.[Sn+4] [SnPPIX, tin protoporphyrin IX] |  |  |  | widespread apoptosis of endothelial cells and cardiac myocytes | Neither SnPPIX or FePPIX treatment influenced C3 deposition | did not influence this Ab response | 32.37 ± 7.23 | widespread vascular thrombosis of large coronary vessels
